Experimental data from patent publication US6596545B1, “Microdevices for screening biomolecules” (priority 1998, dated 2003).

Assays:
Format in all cases: biochemical
[1] = molecular target: HIV protease 184V variant (Human immunodeficiency virus type 1 group M subtype B, UniProt P04585, I572V/P588I); conditions: substrate Dns-SQNYPIVW, pH 5.5
Method: (§1) HIV protease variants, in the form of HIV-GST-K6, and GST-K6 are immobilized to the aminoreactive monolayer surface of the microchannel device (see Example 4, above). HIV-GST-K6 and GST-K6 are diluted to concentrations of 1 μg/ml in 25 mM HEPES buffer (pH 7.5) containing 150 mM NaCl. First, 50 μl of protein-free buffer is transferred through the channels to hydrate the monolayer surface. After 5 min of incubation, 10 μl of the corresponding protein solutions are flushed through the channels to guarantee total replacement with protein-containing solution. Immobilization is finished after 30 min at room temperature. The channels are rinsed with 50 μl immobilization buffer and subjected to analysis. […] Ultrapure water with a resistance of 18 MΩcm is generally used for all aqueous buffers (purified by passage through a Barnstead Nanopure® system).
(§2) HIV protease requires at least a heptapeptide substrate (Moore et al., Biochem. Biophys. Res. Commun., 1989, 159:420). To analyze the activity of the different HIV variants, a continuous assay based on intra-molecular fluorescence resonance energy transfer (FRET) is used. […] Excitation of Trp is at […], and emission of Dns is at 575 nm. Cleavage of the peptide at the Tyr-Pro bond reduces the Dns emission and increases Trp emission at 360 nm. The modified heptapeptide; Dns-[…] is prepared as described (Geoghegan et al.) and analyzed by amino acid analysis, nuclear magnetic resonance and mass spectrometry. The purity is checked by HPLC analysis using a Vydac C-4 column and an acetonitrile gradient in 0.1% TFA. In order to test the activity of all the HIV variants described above, each microchannel with an immobilized HIV variant (see Example 6) is filled with 20 μM of Dns-[…] in 50 mM sodium acetate, pH 5.5, 13% glycerol, 10 mM DTT. Addition of the substrate to the immobilized proteins leads to time-dependent intensity changes in the fluorescence emission spectrum. […] To control for changes in background fluorescence, GST-K6 fusion protein is measured in parallel.
(§3) Competition assays can be carried out to test the specificity of the proteolysis by the HIV variants.

[2] = molecular target: HIV protease A71V variant (Human immunodeficiency virus type 1 group M subtype B, UniProt P04585, A559V/P588I); conditions: substrate Dns-SQNYPIVW, pH 5.5
Method: as §1, §2, §3

[3] = molecular target: HIV protease L63P variant (Human immunodeficiency virus type 1 group M subtype B, UniProt P04585, L551P); conditions: substrate Dns-SQNYPIVW, pH 5.5
Method: as §1, §2, §3

[4] = molecular target: HIV protease M461 variant (Human immunodeficiency virus type 1 group M subtype B, UniProt P04585, M534I); conditions: substrate Dns-SQNYPIVW, pH 5.5
Method: as §1, §2, §3

[5] = molecular target: HIV protease V82F variant (Human immunodeficiency virus type 1 group M subtype B, UniProt P04585, V570F); conditions: substrate Dns-SQNYPIVW, pH 5.5
Method: as §1, §2, §3

[6] = molecular target: L10R HIV protease variant (Human immunodeficiency virus type 1 group M subtype B, UniProt P04585, L498R); conditions: substrate Dns-SQNYPIVW, pH 5.5
Method: as §1, §2, §3

[7] = system: HIV variants (HIV protease variants, HIV-GST-K6); assay: FRET protease activity assay in microchannels, immobilized HIV protease variants; conditions: all immobilized variants other than G48V or L90M; substrate Dns-SQNYPIVW 20 μM, pH 5.5
Method: HIV protease variants, in the form of HIV-GST-K6, and GST-K6 are immobilized to the aminoreactive monolayer surface of the microchannel device (see Example 4, above). HIV-GST-K6 and GST-K6 are diluted to concentrations of 1 μg/ml in 25 mM HEPES buffer (pH 7.5) containing 150 mM NaCl. First, 50 μl of protein-free buffer is transferred through the channels to hydrate the monolayer surface. After 5 min of incubation, 10 μl of the corresponding protein solutions are flushed through the channels to guarantee total replacement with protein-containing solution. Immobilization is finished after 30 min at room temperature. The channels are rinsed with 50 μl immobilization buffer and subjected to analysis. […]
HIV protease requires at least a heptapeptide substrate (Moore et al., Biochem. Biophys. Res. Commun., 1989, 159:420). To analyze the activity of the different HIV variants, a continuous assay based on intra-molecular fluorescence resonance energy transfer (FRET) is used. […] The modified heptapeptide; Dns-SQNYPIVW is prepared as described (Geoghegan et al.) and analyzed by amino acid analysis, nuclear magnetic resonance and mass spectrometry. […] Addition of the substrate to the immobilized proteins leads to time-dependent intensity changes in the fluorescence emission spectrum. […] To control for changes in background fluorescence, GST-K6 fusion protein is measured in parallel. […]

| SMILES | block of protease activity [1] | block of protease activity [2] | block of protease activity [3] | block of protease activity [4] | block of protease activity [5] | decrease of protease activity [6] | inhibition of HIV variants [7] |
| --- | --- | --- | --- | --- | --- | --- | --- |
| CC(C)c1nc(CN(C)C(=O)N[C@H](C(=O)N[C@@H](Cc2ccccc2)C[C@H](O)[C@H](Cc2ccccc2)NC(=O)OCc2cncs2)C(C)C)cs1 [Ritonavir] | unable to block the activity | unable to block the activity | unable to block the activity | unable to block the activity | unable to block the activity | – | – |
| CC(C)(C)NC(=O)[C@@H]1CN(Cc2cccnc2)CCN1C[C@@H](O)C[C@@H](Cc1ccccc1)C(=O)N[C@H]1c2ccccc2C[C@H]1O [Indinavir] | – | the A71V variant is not affected | – | – | – | not able to decrease the activity | – |
| CC(C)(C)NC(=O)[C@@H]1C[C@@H]2CCCC[C@@H]2CN1C[C@@H](O)[C@H](Cc1ccccc1)NC(=O)[C@H](CC(N)=O)NC(=O)c1ccc2ccccc2n1 [Sequinavir] | – | – | – | – | – | – | will inhibit all the HIV variants except those containing either the G48V or the L90M mutation |
